Tests used:
BT474 = experiment: ABC (Antibody Binding Capacity) assay, receptor density; format: cell-based
Procedure: (§1) In order to test efficacy of the immunoconjugate binding with respect to target density receptor density was measured on target positive cell lines. Target density was measured using the ABC (Antibody Binding Capacity) assay. Cancer cells expressing the target of interest, as well as a negative control cell line, were harvested with cell dissociation buffer, seeded at about 5×10^4 cells per well into 96-well V bottom plate (Sarstedt 82.1583.001). Cells were tested for receptor expression using QuantiBRITE PE beads (BD Cat #340495) and a PE-conjugated anti-hu IgG (Biolegend clone HP6017) following the manufacturers' instructions. In brief, VHH-Fc and isotype control antibodies were prepared at suitable saturating concentrations based on previous experiments. Antibody sample dilutions were incubated with the panel of cell lines on ice for 1 hour. Cells were washed twice with 1% FBS in 1×PBS (FACS buffer), centrifuged at 400 G for 4 min. Cells were then incubated with 4 μg/mL mouse PE-conjugated anti-hu and DAPI (1:1000) for 30 minutes on ice. Cells were washed twice with FACS buffer, centrifuged at 400 G for 4 minutes and resuspended in FACS buffer. Fluorescence intensity on the PE channel was measured on the iQue Screener platform, and data were processed with ForeCyt software. The amount of PE signal generated from the different primary antibody was then fit to a standard curve based off of known PE molecules/Quantibrite bead samples to determine the number of antibody-binding sites per cell. Relative antibody binding sites correlate to the number of antigens or receptors on cell surface.

HCT-116 = experiment: as above; format: cell-based
Procedure: as §1

HEK-DLL3 = experiment: as above; format: cell-based
Procedure: as §1

HEK293-6E = experiment: as above; format: cell-based
Procedure: as §1

SHP-77 = experiment: as above; format: cell-based
Procedure: as §1

Human HER2-His = target: T1, Human HER2-His (Homo sapiens, UniProt P04626); experiment: Affinity to target protein by biolayer interferometry (Octet Red96e); format: binding; conditions: analyte Human HER2-His
T1 construct: His; purchased Sinobiologics 10004-H08H
Procedure: Antibody affinity was assessed using Octet Red96e (ForteBio). The association rate constant (ka), dissociation rate constant (kd) and affinity constant (KD) were measured by biolayer interferometry with anti-hIgG Fc (AHC) capture biosensors (Fortebio cat #18-5063). Each cycle was performed with orbital shake speed of 1,000 rpm. Antigen was titrated 1:2 from a suitable starting concentration in kinetics buffer (Fortebio, Cat #18-1105). A set of AHC biosensors was dipped in kinetics buffer for baseline step of 60s. Anti-Target VHH-Fc (5 μg/mL, in kinetics buffer) was loaded onto the biosensors for 240 s followed by a second baseline step of 30 s. The IgG captured sensors were dipped into buffer for single reference subtraction to compensate natural dissociation of capture IgG. Each biosensor was then dipped into corresponding concentration of target protein (human, murine or cynomolgus monomeric protein) for 600 s, followed by 1800 s of dissociation time in kinetics buffer, or conditions as optimized. A new set of AHC biosensors was used for every VHH-Fc. The data was analyzed by global fit 1:1 model for the association and dissociation step, (Octet software version v11.0).

human insulin = target: T2, human insulin (Homo sapiens, UniProt P01308); experiment: Polyreactivity ELISA; format: binding; conditions: 10 μg/mL VHH-Fc; signal normalized to non-coated well
T2 construct: 5 μg/mL of human insulin (SigmaAlrich, Cat #: I9278); purchased SigmaAlrich I9278
T2 sequence (P01308 25-54 limits assumed): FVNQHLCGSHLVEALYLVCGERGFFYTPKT
T2 sequence (P01308 90-110 limits assumed): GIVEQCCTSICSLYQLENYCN
Procedure: Polyreactivity of VHH-Fcs against negatively charged biomolecules was determined by ELISA (As in Avery et al., “Establishing in vitro in vivo correlations to screen monoclonal antibodies for physicochemical properties related to favorable human pharmacokinetics.” MAbs. 2018 February/March; 10(2):244-255). Briefly, ELISA plate was coated with 5 μg/mL of human insulin (SigmaAlrich, Cat #: I9278) and 10 μg/mL of double stranded DNA (SigmaAlrich, Cat #: D1626-250MG) overnight. The plate was blocked with ELISA buffer (PBS, 1 mM EDTA, 0.05% Tween-20, pH 7.4). 10 μg/mL of test VHH-Fcs was loaded onto the plates in quadruplicates and incubated for 2 hours. Goat anti-human Fc(0.01 ug/ml) conjugated with HRP was then added and the plate incubated for 1 hour. The signal was developed with TMB and A450 absorbance was measured with Synergy Neo2 plate reader. The signal was normalized with the signal of non-coated well for each antibody tested.

[1] = Pharmacokinetics of VHH-Fc variants in Tg32 (humanized FcRn) mice; format: in vivo; conditions: IV 3 mg/kg, HER2 VHH-Fc study (Table 6)
Procedure: Twenty eight (28) 8 week old male B6. Cg-Fcgrt^tm1Der Tg(FCGRT)32Dcr/DcrJ (Tg32 hom, JAX stock #014565) mice were distributed into 7 groups with 4 mice per group as outlined in the table. […] (See, e.g., Avery L B et al. “Utility of a human FcRn transgenic mouse model in drug discovery for early assessment and prediction of human pharmacokinetics of monoclonal antibodies.” MAbs. 2016 August-September; 8(6):1064-78). On Day 0, body weights were measured and test articles were IV administered to all mice at 3 mg/kg and 5 mL/kg. 25 μL blood samples were collected from each mouse at time intervals. The blood samples were collected into 1 μL K3EDTA, processed to plasma, diluted 1/10 in 50% glycerol in PBS, transferred into specialized 96 well storage plates, and stored at −20° C. All plasma samples were assessed via a hIgG ELISA chosen for its high sensitivity for all seven test articles.

H101: anti-HER2 VHH-Fc (2RS15d VHH, human IgG1 Fc); FcRn wt, Fc effector wt [Compound H101]
Estimated number of epitopes/cell (BT474): 401604 epitopes/cell | Estimated number of epitopes/cell (HCT-116): 2604 epitopes/cell | Estimated number of epitopes/cell (HEK-DLL3): 1490 epitopes/cell | Estimated number of epitopes/cell (HEK293-6E): 1935 epitopes/cell | Estimated number of epitopes/cell (SHP-77): 572 epitopes/cell | Kd (Human HER2-His): 3.79 nM | Polyreactivity Assay Score, Insulin (human insulin): 1.176 | Clearance [1]: 28.7 mL/day | Cmax [1]: 57.0 µg/mL | Terminal Half-Life [1]: 6.91 days

Source: patent publication US20260183437A1, “VHH ANTIBODY CONJUGATES WITH HETEROARYL CHELATORS” (ABDERA THERAPEUTICS INC., priority 2022, published 2026)
